Assay results: article PMC10815991, “Membrane-Bound Redox Enzyme Cytochrome bd-I Promotes Carbon Monoxide-Resistant Escherichia coli Growth and Respiration” (International Journal of Molecular Sciences, 2024)
Like-named read-outs stand apart in the source and are kept apart here.

Legend:
[1] = test system: E. coli mutant strain expressing cytochrome bd-II as the sole terminal oxidase; assay: Cell growth (OD600) of bd-II-only strain in presence of CO; type: cell-based, Escherichia coli; conditions: ~20% CO added at 60 min after start of growth in air, vs ~20% N2 control
Experimental: (§1) The CO and N2 gases were purchased from Linde (Danbury, CT, USA) and Air Liquide (Air Liquide Italia Spa, Milano, Italy), respectively. Other chemicals were purchased from Merck KGaA (Darmstadt, Germany). A stock solution of CO or N2 was prepared by equilibrating degassed water with the pure gas at 1 atm and room temperature, yielding 1 mM CO and 0.7 mM N2 in solution. E. coli respiratory mutant strains TBE025 (MG1655 ΔcydB nuoB appB::kan), TBE026 (MG1655 ΔcydB nuoB cyoB::kan), and TBE037 (MG1655 ΔappB nuoB cyoB::kan), which respectively express cytochrome bo3, cytochrome bd-II, or cytochrome bd-I as the sole terminal oxidase, were used. […] The gas percentage was assessed by taking into account the different O2 concentrations, present in equal volumes of LB equilibrated with air or flushed with CO/N2 for 30 s, and calculated according to the following equation: Gas % = ([O2] air equilibrated − [O2] gas flushed)/[O2] air equilibrated × 100. [O2] air equilibrated and [O2] gas flushed are the O2 concentration values measured in the degassed chamber of a high-resolution respirometer (Oxygraph-2k, Oroboros Instruments GmbH, Innsbruck, Austria) of non-fluxed and fluxed E. coli cultures with CO or N2, respectively. The growth of the E. coli cultures was then monitored via a standard method using optical density measurements in an Eppendorf BioSpectrometer basic at 600 nm every 30 min. […]

cytochrome bd-I heme d2+ = conditions: cited from earlier work
[2] = target: T1, cytochrome bo3 (bo3-only E. coli membranes) (Escherichia coli, UniProt P0ABI8); assay: O2 reductase activity of isolated bo3-containing membranes; type: biochemical
T1 construct: the oxidases were in vivo conditions, i.e., integrated into native bacterial membranes; endogenous in cells; host or cells: E. coli TBE025 (MG1655 ΔcydB nuoB appB::kan); whole cells (A3) or membranes isolated from them (A7)
T1 sequence (P0ABI8 whole entry): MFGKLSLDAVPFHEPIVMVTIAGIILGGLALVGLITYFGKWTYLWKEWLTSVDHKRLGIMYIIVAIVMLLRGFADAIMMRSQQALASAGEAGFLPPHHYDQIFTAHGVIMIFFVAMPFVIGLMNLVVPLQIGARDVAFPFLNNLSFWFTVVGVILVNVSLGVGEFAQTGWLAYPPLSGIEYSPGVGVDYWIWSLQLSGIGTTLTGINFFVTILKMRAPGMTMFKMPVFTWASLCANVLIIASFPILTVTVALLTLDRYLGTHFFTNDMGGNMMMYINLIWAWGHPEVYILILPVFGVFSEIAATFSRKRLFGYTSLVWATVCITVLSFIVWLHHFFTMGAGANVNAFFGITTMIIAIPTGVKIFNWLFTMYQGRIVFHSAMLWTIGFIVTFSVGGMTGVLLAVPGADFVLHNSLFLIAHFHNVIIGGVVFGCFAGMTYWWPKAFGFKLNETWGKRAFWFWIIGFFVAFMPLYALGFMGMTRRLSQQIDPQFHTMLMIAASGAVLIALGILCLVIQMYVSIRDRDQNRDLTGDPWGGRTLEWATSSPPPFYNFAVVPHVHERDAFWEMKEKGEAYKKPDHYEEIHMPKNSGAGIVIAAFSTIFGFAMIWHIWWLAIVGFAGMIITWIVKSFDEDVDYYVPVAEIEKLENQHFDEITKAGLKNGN
T1 sequence (P0ABJ1 25-315 partner): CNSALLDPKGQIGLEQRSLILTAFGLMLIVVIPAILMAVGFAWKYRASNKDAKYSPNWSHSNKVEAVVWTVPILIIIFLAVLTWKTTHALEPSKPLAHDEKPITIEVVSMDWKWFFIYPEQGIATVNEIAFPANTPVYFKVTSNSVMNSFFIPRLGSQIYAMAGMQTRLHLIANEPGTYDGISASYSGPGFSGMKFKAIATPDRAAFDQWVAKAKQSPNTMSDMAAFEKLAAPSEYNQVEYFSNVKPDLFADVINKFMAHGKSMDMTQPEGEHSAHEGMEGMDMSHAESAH
T1 sequence (P0ABJ3 whole entry partner): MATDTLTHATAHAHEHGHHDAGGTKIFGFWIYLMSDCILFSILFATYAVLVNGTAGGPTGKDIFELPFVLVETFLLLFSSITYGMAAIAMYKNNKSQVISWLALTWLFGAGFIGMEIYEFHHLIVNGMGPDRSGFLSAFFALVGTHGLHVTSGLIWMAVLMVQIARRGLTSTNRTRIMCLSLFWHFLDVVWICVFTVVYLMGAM
T1 sequence (P0ABJ6 whole entry partner): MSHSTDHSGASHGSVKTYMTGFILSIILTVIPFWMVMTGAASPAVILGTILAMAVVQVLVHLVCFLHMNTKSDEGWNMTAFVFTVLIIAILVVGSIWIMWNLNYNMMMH
Experimental: (§2) To isolate membranes from E. coli respiratory mutants expressing only one terminal quinol oxidase (cytochrome bd-I or cytochrome bd-II or cytochrome bo3), cell cultures were grown in LB medium until an OD600 of about 2 was reached. The cells were then pelleted by centrifugation at 10,000 rpm for 10 min and washed twice in 20 mM TRIS pH 8.3 containing 0.5 mM EDTA and 5 mM MgSO4. The cells were resuspended in the same buffer containing 1 mg/mL lysozyme and incubated for two hours on ice. A spatula tip of DNAse and RNase was then added, and the cells were lysed by sonication. Cell debris was removed by centrifugation at 15,000 rpm for 10 min. Membrane fractions were collected and stored at −80 °C. The protein content was determined using the Bradford method, using the Bradford reagent (Sigma) with bovine serum albumin as standard.
(§3) Oxygraphic measurements were performed at 25 °C in 50 mM K/phosphate pH 7.0, using a high-resolution respirometer (Oxygraph-2k, Oroboros Instruments GmbH, Innsbruck, Austria) equipped with two 1.5-mL chambers. The O2 consumption of E. coli cells was followed with endogenous reductants. In the case of isolated membranes, O2 consumption was measured in the presence of 2.5 mM dithiothreitol (DTT) and 2.5 μM 2,3-dimethoxy-5-methyl-6-(3-methyl-2-butenyl)-1,4-benzoquinone (Q1), an artificial reducing couple specific for quinol oxidases. […]

[3] = target: T2, cytochrome bd-I (bd-I-only E. coli membranes) (Escherichia coli, UniProt P0ABJ9); assay: O2 reductase activity of isolated bd-I-containing membranes; type: biochemical
T2 construct: the oxidases were in vivo conditions, i.e., integrated into native bacterial membranes; endogenous in cells; host or cells: E. coli TBE037 (MG1655 ΔappB nuoB cyoB::kan); whole cells (A1) or membranes isolated from them (A5)
T2 sequence (P0ABJ9 whole entry): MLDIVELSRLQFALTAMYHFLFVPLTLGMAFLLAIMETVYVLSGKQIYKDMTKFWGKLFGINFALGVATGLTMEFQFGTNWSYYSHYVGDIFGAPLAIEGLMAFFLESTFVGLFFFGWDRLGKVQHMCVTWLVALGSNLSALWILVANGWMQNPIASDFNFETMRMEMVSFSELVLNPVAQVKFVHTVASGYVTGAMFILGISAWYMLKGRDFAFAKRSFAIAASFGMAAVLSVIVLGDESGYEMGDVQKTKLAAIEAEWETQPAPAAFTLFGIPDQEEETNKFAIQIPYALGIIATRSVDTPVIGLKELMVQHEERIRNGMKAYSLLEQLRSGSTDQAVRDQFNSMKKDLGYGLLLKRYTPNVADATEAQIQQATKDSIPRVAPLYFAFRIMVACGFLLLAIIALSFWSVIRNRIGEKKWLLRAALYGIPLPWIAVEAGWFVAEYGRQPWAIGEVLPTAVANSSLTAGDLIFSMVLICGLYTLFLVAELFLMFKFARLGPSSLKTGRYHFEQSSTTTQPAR
T2 sequence (P0ABK2 whole entry partner): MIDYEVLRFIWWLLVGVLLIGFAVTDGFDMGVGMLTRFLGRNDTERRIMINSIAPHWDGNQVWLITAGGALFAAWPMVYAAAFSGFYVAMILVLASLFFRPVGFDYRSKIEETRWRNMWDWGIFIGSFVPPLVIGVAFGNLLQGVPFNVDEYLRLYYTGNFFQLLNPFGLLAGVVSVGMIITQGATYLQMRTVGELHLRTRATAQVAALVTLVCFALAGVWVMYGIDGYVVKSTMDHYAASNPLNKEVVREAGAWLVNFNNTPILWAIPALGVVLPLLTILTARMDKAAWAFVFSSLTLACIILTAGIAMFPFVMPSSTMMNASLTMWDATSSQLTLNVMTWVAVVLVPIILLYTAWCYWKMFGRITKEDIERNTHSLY
T2 sequence (P56100 whole entry partner): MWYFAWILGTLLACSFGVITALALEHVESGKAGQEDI
T2 sequence (A5A618 whole entry partner): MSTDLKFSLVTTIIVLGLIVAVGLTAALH
Experimental: as §2, §3

[4] = target: T3, cytochrome bo3 (bo3-only E. coli cells) (Escherichia coli, UniProt P0ABI8); design: method as in PMID 38188931; conditions: [O2] = 150 μM; cited from earlier work
T3 construct: the oxidases were in vivo conditions, i.e., integrated into native bacterial membranes; endogenous in cells; host or cells: E. coli TBE025 (MG1655 ΔcydB nuoB appB::kan); whole cells (A3) or membranes isolated from them (A7)
T3 sequence (P0ABI8 whole entry): as the sequence (P0ABI8 whole entry) above
T3 sequence (P0ABJ1 25-315 partner): as the sequence (P0ABJ1 25-315 partner) above
T3 sequence (P0ABJ3 whole entry partner): as the sequence (P0ABJ3 whole entry partner) above
T3 sequence (P0ABJ6 whole entry partner): as the sequence (P0ABJ6 whole entry partner) above

[5] = target: T4, cytochrome bd-II (bd-II-only E. coli cells) (Escherichia coli, UniProt P26459); design: method as in PMID 37515940; conditions: [O2] = 150 μM; cited from earlier work
T4 construct: the oxidases were in vivo conditions, i.e., integrated into native bacterial membranes; endogenous in cells; host or cells: E. coli TBE026 (MG1655 ΔcydB nuoB cyoB::kan); whole cells (A2) or membranes isolated from them (A6)
T4 sequence (P26459 whole entry): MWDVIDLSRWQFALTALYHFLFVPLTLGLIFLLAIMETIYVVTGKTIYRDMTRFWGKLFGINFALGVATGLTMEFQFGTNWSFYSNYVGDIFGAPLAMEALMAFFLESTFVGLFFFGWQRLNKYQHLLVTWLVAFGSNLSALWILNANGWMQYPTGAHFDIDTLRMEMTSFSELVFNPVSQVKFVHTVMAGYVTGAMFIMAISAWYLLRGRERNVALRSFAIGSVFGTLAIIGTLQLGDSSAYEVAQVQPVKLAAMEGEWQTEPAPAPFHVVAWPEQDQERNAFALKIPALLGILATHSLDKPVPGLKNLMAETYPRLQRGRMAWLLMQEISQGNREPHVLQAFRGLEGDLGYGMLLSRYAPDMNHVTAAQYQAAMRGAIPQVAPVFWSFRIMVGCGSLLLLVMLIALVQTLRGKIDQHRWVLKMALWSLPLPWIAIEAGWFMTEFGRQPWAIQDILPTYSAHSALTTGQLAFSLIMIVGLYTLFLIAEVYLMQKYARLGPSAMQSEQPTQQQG
T4 sequence (P26458 whole entry partner): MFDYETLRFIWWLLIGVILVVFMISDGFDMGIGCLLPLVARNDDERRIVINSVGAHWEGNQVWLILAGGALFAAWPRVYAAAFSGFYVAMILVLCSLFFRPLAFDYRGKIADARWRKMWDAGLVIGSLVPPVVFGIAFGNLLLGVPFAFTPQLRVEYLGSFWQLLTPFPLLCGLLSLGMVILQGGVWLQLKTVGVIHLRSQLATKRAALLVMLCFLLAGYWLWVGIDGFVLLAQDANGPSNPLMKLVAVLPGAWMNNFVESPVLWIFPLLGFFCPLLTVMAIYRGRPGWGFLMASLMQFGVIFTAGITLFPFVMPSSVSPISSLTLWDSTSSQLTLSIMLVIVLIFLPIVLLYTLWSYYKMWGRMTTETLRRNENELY
T4 sequence (P24244 whole entry partner): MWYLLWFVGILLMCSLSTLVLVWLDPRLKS

[6] = target: T5, cytochrome bd-II (bd-II-only E. coli membranes) (Escherichia coli, UniProt P26459); assay: O2 reductase activity of isolated bd-II-containing membranes; type: biochemical
T5 construct: the oxidases were in vivo conditions, i.e., integrated into native bacterial membranes; endogenous in cells; host or cells: E. coli TBE026 (MG1655 ΔcydB nuoB cyoB::kan); whole cells (A2) or membranes isolated from them (A6)
T5 sequence (P26459 whole entry): as the sequence (P26459 whole entry) above
T5 sequence (P26458 whole entry partner): as the sequence (P26458 whole entry partner) above
T5 sequence (P24244 whole entry partner): as the sequence (P24244 whole entry partner) above
Experimental: as §2, §3

[7] = target: T4, cytochrome bd-II (bd-II-only E. coli cells); assay: O2 consumption (aerobic respiration) of bd-II-only E. coli cell suspensions; type: cell-based; conditions: for IC50: read-out: apparent IC50
Experimental: (§4) The CO and N2 gases were purchased from Linde (Danbury, CT, USA) and Air Liquide (Air Liquide Italia Spa, Milano, Italy), respectively. Other chemicals were purchased from Merck KGaA (Darmstadt, Germany). A stock solution of CO or N2 was prepared by equilibrating degassed water with the pure gas at 1 atm and room temperature, yielding 1 mM CO and 0.7 mM N2 in solution. E. coli respiratory mutant strains TBE025 (MG1655 ΔcydB nuoB appB::kan), TBE026 (MG1655 ΔcydB nuoB cyoB::kan), and TBE037 (MG1655 ΔappB nuoB cyoB::kan), which respectively express cytochrome bo3, cytochrome bd-II, or cytochrome bd-I as the sole terminal oxidase, were used. E. coli cultures were grown in Luria–Bertani (LB) medium supplemented with 30 μg/mL kanamycin, at 37 °C and 200 rpm. In the case of growth studies, after inoculation at an OD600 of 0.15 ± 0.03, the cells were grown in 50 mL rubber-stoppered flasks in 16 mL of air-equilibrated LB at 37 °C for 60 min; when OD600 reached 0.4 ± 0.08, they were bubbled for 30 s with either CO (pure gas at 1 atm and room temperature) or N2 (pure gas at 1 atm and room temperature) as a control to yield a final concentration of both gases of ~20%. The gas percentage was assessed by taking into account the different O2 concentrations, present in equal volumes of LB equilibrated with air or flushed with CO/N2 for 30 s, and calculated according to the following equation: Gas % = ([O2] air equilibrated − [O2] gas flushed)/[O2] air equilibrated × 100. [O2] air equilibrated and [O2] gas flushed are the O2 concentration values measured in the degassed chamber of a high-resolution respirometer (Oxygraph-2k, Oroboros Instruments GmbH, Innsbruck, Austria) of non-fluxed and fluxed E. coli cultures with CO or N2, respectively. The growth of the E. coli cultures was then monitored via a standard method using optical density measurements in an Eppendorf BioSpectrometer basic at 600 nm every 30 min. When the OD600 was above 1, cultures were diluted before reading.
(§5) Oxygraphic measurements were performed at 25 °C in 50 mM K/phosphate pH 7.0, using a high-resolution respirometer (Oxygraph-2k, Oroboros Instruments GmbH, Innsbruck, Austria) equipped with two 1.5-mL chambers. The O2 consumption of E. coli cells was followed with endogenous reductants. In the case of isolated membranes, O2 consumption was measured in the presence of 2.5 mM dithiothreitol (DTT) and 2.5 μM 2,3-dimethoxy-5-methyl-6-(3-methyl-2-butenyl)-1,4-benzoquinone (Q1), an artificial reducing couple specific for quinol oxidases. The catalytic O2-consuming activity was obtained by subtracting the non-enzymatic O2 consumption (Q1/DTT autoxidation in the absence of the membranes) from the O2 consumption rate measured after the addition of membranes.
(§6) UV–visible absorption spectra were recorded to estimate the amount of each terminal oxidase present in cell suspensions. For this purpose, an Agilent Cary 60 UV-Vis or a Varian Cary 300 Bio UV-Visible spectrophotometer was used.
(§7) Data analysis was carried out using software packages Origin v7.0 (OriginLab Corporation, Northampton, MA, USA) and GIM (Scientific Graphic Interactive Management System developed by A.L. Drachev in Lomonosov Moscow State University). The percentage inhibition of O2 consumption of cell suspensions (i%) was calculated using the equation i% = ((V0 − V0,i)/V0)·100, where V0 and V0,i are the initial rates in the absence and in the presence of the inhibitor (CO), respectively. The apparent IC50 values of cytochromes bd-II and bo3 for CO were estimated by plotting i% as a function of CO concentration added ([CO]0). The data were fitted to the standard hyperbolic equation i% = imax%·[CO]0/(IC50 + [CO]0) using a built-in approximation function (‘Hyperbola function’) in ‘Advanced Fitting tool’ in the Origin program. The imax% parameter is a theoretical maximum percent inhibition. […]

[8] = test system: E. coli mutant strain expressing cytochrome bd-I as the sole terminal oxidase; assay: Cell growth (OD600) of bd-I-only strain in presence of CO; type: cell-based, Escherichia coli; conditions: ~20% CO added at 60 min after start of growth in air, vs ~20% N2 control
Experimental: as §1

[9] = target: T6, cytochrome bd-I (bd-I-only E. coli cells) (Escherichia coli, UniProt P0ABJ9); assay: O2 consumption (aerobic respiration) of bd-I-only E. coli cell suspensions; type: cell-based
T6 construct: the oxidases were in vivo conditions, i.e., integrated into native bacterial membranes; endogenous in cells; host or cells: E. coli TBE037 (MG1655 ΔappB nuoB cyoB::kan); whole cells (A1) or membranes isolated from them (A5)
T6 sequence (P0ABJ9 whole entry): as the sequence (P0ABJ9 whole entry) above
T6 sequence (P0ABK2 whole entry partner): as the sequence (P0ABK2 whole entry partner) above
T6 sequence (P56100 whole entry partner): as the sequence (P56100 whole entry partner) above
Experimental: as §4
as §5, with “The O2 consumption of E. coli cells was followed with endogenous reductants.” left out
UV–visible absorption spectra were recorded to estimate the amount of each terminal oxidase present in cell suspensions. […]

[10] = target: T3, cytochrome bo3 (bo3-only E. coli cells); assay: O2 consumption (aerobic respiration) of bo3-only E. coli cell suspensions; type: cell-based; conditions: for IC50: read-out: apparent IC50
Experimental: as §4, §5, §6, §7

[11] = test system: E. coli mutant strain expressing cytochrome bo3 as the sole terminal oxidase; assay: Cell growth (OD600) of bo3-only strain in presence of CO; type: cell-based, Escherichia coli; conditions: ~20% CO added at 60 min after start of growth in air, vs ~20% N2 control
Experimental: as §1

[12] = test system: E. coli wild-type strain MG1655 cells; assay: O2 consumption of wild-type E. coli cell suspensions at high and low OD; type: cell-based, Escherichia coli
[13] = test system: terminal oxidase operons cyoABCDE, cydABX, appCBX; design: method as in PMID 26907100; conditions: wild-type E. coli exposed to CO gas, cited from earlier work
cytochrome bd-II = conditions: read-out: apparent Km(O2); cited from earlier work
cytochrome bo3 = conditions: read-out: apparent Km(O2); cited from earlier work
[14] = 196.3 μM CO added at [O2] = 50 μM
[15] = 196.3 μM CO added at [O2] = 100 μM
[16] = 196.3 μM CO added at [O2] = 200 μM

[C-]#[O+] [CO, Carbon monoxide]
effect on cell growth [1]: severely impaired | koff, dissociation of CO from the oxidase (cytochrome bd-I heme d2+; fully reduced form of the CO-bound enzyme): 6.0 ± 0.2 s⁻¹ | CO inhibition of O2 reductase activity of membranes [2]: effectively inhibits | CO inhibition of O2 reductase activity of membranes [3]: relatively resistant to inhibition by CO | IC50 [4]: 183 ± 13.5 µM | IC50 [5]: 187 ± 11.1 µM | CO inhibition of O2 reductase activity of membranes [6]: effectively inhibits | inhibition of O2 consumption ([7]; 96.3 μM CO added at [O2] = 100 μM, bd-II-only cells): 43.3 ± 7.6% | maximum inhibition percentage of respiration [7, 14]: 59.3 ± 11.5% | maximum inhibition percentage of respiration [7, 15]: 50.0 ± 3.6% | maximum inhibition percentage of respiration [7, 16]: 47.0 ± 6.0% | IC50 ([7]; CO added at [O2] = 50 μM): 88.6 ± 9.3 µM | IC50 ([7]; CO added at [O2] = 100 μM): 170 ± 15 µM | IC50 ([7]; CO added at [O2] = 200 μM): 230 ± 12 µM | Ki ([7]; estimated from IC50 values at different [O2], assuming competitive inhibition, Km(O2) 2 µM): 2.5 ± 0.2 µM | effect on cell growth [8]: a minimal effect on cell growth was observed | inhibition of O2 consumption ([9]; 96.3 μM CO added at [O2] = 100 μM, bd-I-only cells): 11.6 ± 1.1% | maximum inhibition percentage of respiration [9, 14]: 39.6 ± 4.5% | maximum inhibition percentage of respiration [9, 15]: 18.0 ± 7.8% | maximum inhibition percentage of respiration [9, 16]: 9.7 ± 4.9% | inhibition of O2 consumption ([10]; 96.3 μM CO added at [O2] = 100 μM, bo3-only cells): 44.3 ± 1.5% | maximum inhibition percentage of respiration [10, 14]: 85.6 ± 3.7% | maximum inhibition percentage of respiration [10, 15]: 65.3 ± 17.2% | maximum inhibition percentage of respiration [10, 16]: 39.7 ± 11.5% | IC50 ([10]; CO added at [O2] = 50 μM): 66.5 ± 10 µM | IC50 ([10]; CO added at [O2] = 100 μM): 131 ± 14 µM | IC50 ([10]; CO added at [O2] = 200 μM): 330 ± 19.6 µM | Ki ([10]; estimated from IC50 values at different [O2], assuming competitive inhibition, Km(O2) 6 µM): 8.4 ± 0.7 µM | effect on cell growth [11]: severely impaired | sensitivity of O2 consumption to CO ([12]; wild-type cells harvested at high OD600 (prevalent expression of a bd-type oxidase)): low | sensitivity of O2 consumption to CO ([12]; wild-type cells harvested at low OD600 (prevalent expression of cytochrome bo3)): high | decrease in the expression of the cyoABCDE operon ([13]; aerobic conditions): 5- to 10 fold | increase in the expression of the cydABX operon ([13]; aerobic conditions): 4 fold | changes in the expression of the appCBX operon [13]: slight

O=O [O2]
Km (cytochrome bd-II): 2 µM | Km (cytochrome bo3): 6 µM

nitric oxide [NO]
koff, NO dissociation from heme d^2+ (cytochrome bd-I heme d2+; ref 69): 0.133 s⁻¹ | koff, NO dissociation from heme d^2+ (cytochrome bd-I heme d2+; ref 70): 0.163 s⁻¹
